Data taken from paper PMC4209782 (Biochemical Journal, 2014).

Assays:
SGK3 = SGK3 kinase activity after immunoprecipitation from inhibitor-treated U2OS cells (Crosstide assay); assay type: cell-based
[1] = tested on: SGK3 phosphorylation (Thr320, Ser486); test: SGK3 T-loop and hydrophobic motif phosphorylation, immunoblot of treated U2OS cells; assay type: cell-based; details: for SGK3 T-loop and hydrophobic motif phosphorylation: 1 h, U2OS, immunoblot
Method: (§1) U20S cell line was kindly provided by John Rouse (MRC Protein Phosphorylation and Ubiquitylation Unit, University of Dundee, Dundee, U.K.). Cells were cultured in DMEM (Dulbecco's modified Eagle's medium) supplemented with 10% (v/v) FBS, 2 mM L-glutamine, 100 U/ml penicillin and 0.1 mg/ml streptomycin. cDNA for mouse Hrs (residues 147–223 ×2 joined by a linker) were cloned into a pBABE.puro vector. […] . The virus was harvested 48 h after transfection and applied to U20S cells in the presence of 10 μg/ml polybrene. Cells were selected with 10 μg/ml puromycin before single cell colony selection to identify low expression GFP–FYVEHrs clones. U2OS Flp/In cell line was kindly provided by John Rouse. Cells were cultured in McCoy medium supplemented with 10% (v/v) FBS, 2 mM L-glutamine, 100 U/ml penicillin and 0.1 mg/ml streptomycin. Stable cell lines expressing doxycycline-inducible proteins were generated using the Flp-In™ T-REx™ system (Invitrogen). Stable transfected clones were selected using 0.01 mM hygromycin in cell medium. Protein expression was induced by adding 0.01 mg/ml doxycycline in the medium for 24 h prior to cell lysis. Inhibitor treatment was carried out as described in the Figure legends. The cells were lysed in buffer containing 50 mM Tris/HCl (pH 7.5), 150 mM NaCl, 1 mM EDTA, 1 mM EGTA, 1 mM sodium orthovanadate, 10 mM sodium glycerophosphate, 50 mM sodium fluoride, 10 mM sodium pyrophosphate, 0.27 M sucrose, 0.1% 2-mercaptoethanol, 1 mM benzamidine and 0.1 mM PMSF. Lysates were clarified by centrifugation at 16000 g for 10 min at 4°C. Protein concentration was calculated using Bradford assay (Thermo Scientific). Immunoblotting and immunoprecipitation were performed using standard procedures. The signal was developed using the ECL Western Blotting Detection kit (GE Healthcare) on Hyperfilm ECL film (GE Healthcare). […]

[2] = tested on: 4EBP1 phosphorylation (Thr37, Thr46 and Ser65); test: 4E-BP1 phosphorylation (mTORC1 sites), immunoblot of treated U2OS cells; assay type: cell-based; details: AZD8055 0.1 μM
Method: as §1

Vps34 = details: cited from earlier work
[3] = tested on: Akt (Thr308, Ser473) and Akt substrate PRAS40 (Thr246) phosphorylation; test: Akt and PRAS40 phosphorylation, immunoblot of treated U2OS cells; assay type: cell-based; details: 1 h
Method: U20S cell line was kindly provided by John Rouse (MRC Protein Phosphorylation and Ubiquitylation Unit, University of Dundee, Dundee, U.K.). Cells were cultured in DMEM (Dulbecco's modified Eagle's medium) supplemented with 10% (v/v) FBS, 2 mM L-glutamine, 100 U/ml penicillin and 0.1 mg/ml streptomycin. cDNA for mouse Hrs (residues 147–223 ×2 joined by a linker) were cloned into a pBABE.puro vector. […] . The virus was harvested 48 h after transfection and applied to U20S cells in the presence of 10 μg/ml polybrene. Cells were selected with 10 μg/ml puromycin before single cell colony selection to identify low expression GFP–FYVEHrs clones. U2OS Flp/In cell line was kindly provided by John Rouse. Cells were cultured in McCoy medium supplemented with 10% (v/v) FBS, 2 mM L-glutamine, 100 U/ml penicillin and 0.1 mg/ml streptomycin. Stable cell lines expressing doxycycline-inducible proteins were generated using the Flp-In™ T-REx™ system (Invitrogen). Stable transfected clones were selected using 0.01 mM hygromycin in cell medium. Protein expression was induced by adding 0.01 mg/ml doxycycline in the medium for 24 h prior to cell lysis. Inhibitor treatment was carried out as described in the Figure legends. The cells were lysed in buffer containing 50 mM Tris/HCl (pH 7.5), 150 mM NaCl, 1 mM EDTA, 1 mM EGTA, 1 mM sodium orthovanadate, 10 mM sodium glycerophosphate, 50 mM sodium fluoride, 10 mM sodium pyrophosphate, 0.27 M sucrose, 0.1% 2-mercaptoethanol, 1 mM benzamidine and 0.1 mM PMSF. Lysates were clarified by centrifugation at 16000 g for 10 min at 4°C. Protein concentration was calculated using Bradford assay (Thermo Scientific). Immunoblotting and immunoprecipitation were performed using standard procedures. The signal was developed using the ECL Western Blotting Detection kit (GE Healthcare) on Hyperfilm ECL film (GE Healthcare).
The following antibodies were raised in sheep, by the DSTT (Division of Signal Transduction Therapy) at the University of Dundee, and affinity-purified against the indicated antigens: anti-Akt1 (S695B, third bleed; raised against residues 466–480 of human Akt1: […]), anti-PRAS40 (proline-rich Akt substrate 40 kDa) (S115B, first bleed; raised against residues 238–256 of human PRAS40: […]), anti-(phospho-PRAS40 Thr^246) (S114B, second bleed; raised against residues 240–251 of human PRAS40: CRPRLNTpSDFQK), anti-NDRG1 (N-Myc downstream-regulated gene-1) (S276B third bleed; raised against full-length human NDRG1) and anti-SGK3 [S037D second bleed; raised against human SGK3 PX domain comprising residues 1–130 of SGK3]. […] Anti-(phospho-SGK hydrophobic motif [Ser^486 in SGK3]) antibody (sc16745) was from Santa Cruz Biotechnology and total SGK1/2 antibody was from Sigma (5188) as was the mouse anti-FLAG antibody. Secondary antibodies coupled to HRP (horseradish peroxidase) were obtained from Thermo Scientific.
. […] (B and C) As in (A) except cells were treated with the indicated doses of the BKM120 class I PI3K inhibitor.

[4] = tested on: ProQinase panel of 300 protein kinases; test: ProQinase protein kinase profiling panel; assay type: biochemical; details: 1 μM, 300 kinases
Source text: Supplementary Figure Legends
technology. The assay conditions are described at
activity in DMSO control.

[5] = tested on: endosomal PtdIns(3)P (GFP–2×FYVEHrs probe) in U2OS cells; test: GFP–2×FYVEHrs probe localization on endosomes, fixed U2OS cells; assay type: cell-based; details: for loss of endosomal localization of GFP–2×FYVEHrs: 1 h
Method: U20S cell line was kindly provided by John Rouse (MRC Protein Phosphorylation and Ubiquitylation Unit, University of Dundee, Dundee, U.K.). […] The virus was harvested 48 h after transfection and applied to U20S cells in the presence of 10 μg/ml polybrene. Cells were selected with 10 μg/ml puromycin before single cell colony selection to identify low expression GFP–FYVEHrs clones. U2OS Flp/In cell line was kindly provided by John Rouse. Cells were cultured in McCoy medium supplemented with 10% (v/v) FBS, 2 mM L-glutamine, 100 U/ml penicillin and 0.1 mg/ml streptomycin. Stable cell lines expressing doxycycline-inducible proteins were generated using the Flp-In™ T-REx™ system (Invitrogen). Stable transfected clones were selected using 0.01 mM hygromycin in cell medium. Protein expression was induced by adding 0.01 mg/ml doxycycline in the medium for 24 h prior to cell lysis. Inhibitor treatment was carried out as described in the Figure legends. The cells were lysed in buffer containing 50 mM Tris/HCl (pH 7.5), 150 mM NaCl, 1 mM EDTA, 1 mM EGTA, 1 mM sodium orthovanadate, 10 mM sodium glycerophosphate, 50 mM sodium fluoride, 10 mM sodium pyrophosphate, 0.27 M sucrose, 0.1% 2-mercaptoethanol, 1 mM benzamidine and 0.1 mM PMSF. Lysates were clarified by centrifugation at 16000 g for 10 min at 4°C. Protein concentration was calculated using Bradford assay (Thermo Scientific). Immunoblotting and immunoprecipitation were performed using standard procedures. The signal was developed using the ECL Western Blotting Detection kit (GE Healthcare) on Hyperfilm ECL film (GE Healthcare).
Cells were cultured on glass coverslips and processed for immunocytochemistry using standard protocols. […] For experiments quantifying co-localization of SGK3–GFP with EEA1 (early endosome antigen 1) and localization GFP–FYVEHrs in response to inhibitor treatment, cells were permeabilized via one freeze–thaw cycle in liquid nitrogen and subsequently fixed. […]
The average cell fluorescence was calculated by dividing total fluorescence of each field by the number of the cells in the field. […]

[6] = tested on: PtdIns(3,4,5)P3/PtdIns(3,4)P2 (GFP–PHAkt1 probe) in U2OS cells; test: IGF1-induced plasma membrane recruitment of GFP–PHAkt1 in U2OS cells; details: 1 μM VPS34-IN1 or 0.5 μM GDC-0941 for 1 h, IGF 100 ng/ml 15 min
Method: (§2) Cells were cultured on glass coverslips and processed for immunocytochemistry using standard protocols. […] For experiments quantifying co-localization of SGK3–GFP with EEA1 (early endosome antigen 1) and localization GFP–FYVEHrs in response to inhibitor treatment, cells were permeabilized via one freeze–thaw cycle in liquid nitrogen and subsequently fixed. The following primary antibodies were used: rabbit anti-EEA1 (1:500 dilution; Life Technologies) and mouse anti-GFP (1:1000 dilution; Life Technologies) antibodies. […] Imaging was conducted using a Nikon Eclipse Ti-S microscope (×40 objective) or a Zeiss LSM710 laser scanning confocal microscope [×63 Plan-Apochromat oil immersion objective; 1.40 NA (numerical aperture)] as described in the Figure legends. Time-lapse microscopy was carried out on the same microscope using a heated incubator, heated stage plate and CO2 controller (Pecon) to maintain the cells.
(§3) Time-lapse microscopy was performed on Zeiss 710 microscope using ×63 objective. […] The cells were fixed with 4% paraformaldehyde and images were taken using Zeiss 710 microscope at ×63 objective.

SGK2 = SGK2 kinase activity after immunoprecipitation from inhibitor-treated U2OS cells; details: 1 h, U2OS expressing SGK2
Method: In vitro kinase activity of SGK3 and SGK2 was assayed by measuring [γ-^32P]ATP incorporation into Crosstide substrate peptide [[sequence]]. SGK3 with a C-terminal FLAG-tag was immunoprecipitated from doxycycline-induced U2OS Flp/In cell lines. Immunoprecipitates were washed in sequence with lysis buffer containing high salt concentration (500 mM NaCl), lysis buffer and buffer A (50 mM Tris/HCl, pH 7.5, and 0.1 mM EGTA). Reactions were carried in 40 μl of total volume containing 0.1 mM [γ-^32P]ATP (400–1000 c.p.m./pmol), 10 mM magnesium acetate and 30 μM Crosstide peptide. Reactions were terminated by adding 10 μl of 0.1 mM EDTA and spotting 40 μl of the reaction mixture on P81 paper which were immediately immersed into 50 mM orthophosphoric acid. Papers were washed several times in 50 mM orthophosphoric acid, rinsed in acetone and air dried. Radioactivity was quantified by Cerenkov counting. One unit of enzyme activity was defined as the amount of enzyme that catalyses incorporation of 1 nmol of [γ-^32P]ATP into the substrate over 1 min.
The cells were lysed and SGK3 immunoprecipitated with anti-FLAG antibody. […]

[7] = tested on: SGK3 localization on endosomes in U2OS cells; test: SGK3–GFP endosomal localization, time-lapse microscopy in U2OS cells
Method: as §2
Images were acquired every 0.5 min up to 60 min. […] Post-acquisition, image analysis was conducted with Volocity 6.3 (PerkinElmer).
Images were taken using a Nicon Eclipse Ti-S microscope with ×40 objective (upper panel). […] Pictures were taken with Zeiss 710 microscope using ×100 objective. Mander's correlation coefficient in 112 cells was calculated using the Volocity 6.3 program. […] Time-lapse microscopy was performed on Zeiss 710 microscope using ×63 objective. Representative images are shown and similar results were obtained in two experiments.

[8] = tested on: NDRG1 phosphorylation at Thr346; test: NDRG1 Thr346 phosphorylation, immunoblot of treated U2OS cells; assay type: cell-based; details: 1 h
Method: as §1, with “The cells were lysed in buffer containing 50 mM Tris/HCl (pH 7.5), 150 mM NaCl, 1 mM EDTA, 1 mM EGTA, 1 mM sodium orthovanadate, 10 mM sodium glycerophosphate, 50 mM sodium fluoride, 10 mM sodium pyrophosphate, 0.27 M sucrose, 0.1% 2-mercaptoethanol, 1 mM benzamidine and 0.1 mM PMSF. Lysates were clarified by centrifugation at 16000 g for 10 min at 4°C.” left out, “Scientific).” for “Scientific). Immunoblotting and immunoprecipitation were performed using standard procedures. The signal was developed using the ECL Western Blotting Detection kit (GE Healthcare) on Hyperfilm ECL film (GE Healthcare).”

[9] = tested on: panel of 19 lipid kinases (includes class I PI3Ks); test: Dundee lipid kinase profiling panel; assay type: biochemical; details: 1 μM
[10] = tested on: Dundee panel of 140 protein kinases; test: Dundee protein kinase profiling panel; details: 1 μM, 140 kinases
Method: (C) Protein kinase profiling of the VPS34-IN1 at a single concentration of 1 μM carried out against the Dundee panel of 140 protein kinases at the International Centre for Protein Kinase Profiling. […] Abbreviations and assay conditions used for each kinase are defined at http://www.kinase-screen.mrc.ac.uk.

[11] = tested on: endosomal PtdIns(3)P (GFP–2×FYVEHrs probe) in U2OS cells; test: GFP–2×FYVEHrs probe localization, live imaging (time-lapse) in U2OS cells
Method: as §2
Images were acquired every 0.5 min up to 60 min. Inhibitors were added after acquiring two images, except for VPS34-IN1 that was added after the first image taken. Post-acquisition, image analysis was conducted with Volocity 6.3 (PerkinElmer).
as §3

Compound: CNc1nc(-c2ccc3c(N)n[nH]c3c2)cc(N2C[C@@H](C(=O)NC3CCCCC3)CC[C@H]2C)n1 [GSK2334470, reference compound]
- SGK3 activity after PDK1 inhibitor (SGK3; 1 μM, 1 h, U2OS): near basal levels
- SGK3 T-loop and hydrophobic motif phosphorylation [1]: near basal levels

Compound: COc1ccc(-c2ccc3c(N4CCOC[C@@H]4C)nc(N4CCOC[C@@H]4C)nc3n2)cc1CO [AZD8055]
- phosphorylation of 4EBP1 at sites phosphorylated by mTORC1 [2]: marked dephosphorylation

Compound: Nc1cc(C(F)(F)F)c(-c2cc(N3CCOCC3)nc(N3CCOCC3)n2)cn1 [BKM120]
- inhibition at 0.5 µM (SGK3; Homo sapiens, U2OS, 1 h, read-out: inhibition of SGK3 activity by class I PI3K inhibitor): ~40%
- phosphorylation of 4EBP1 at sites phosphorylated by mTORC1 [2]: lack of effect
- inhibition of Vps34 (Vps34): do not inhibit
- Akt phosphorylation at Ser473 and Thr308 [3]: near basal levels
- phosphorylation of Akt substrate PRAS40 (Thr246) [3]: near basal levels

Compound: CC(C)(O)CNc1ncc(-c2ccnc(Nc3ccnc(Cl)c3)n2)c(CC2CC2)n1 [VPS34-IN1, 1-[{2-[(2-chloropyridin-4yl)amino]-4′-(cyclopropylmethyl)-[4,5′-bipyrimidin]-2′-yl}amino]-2-methyl-propan-2-ol]
- reduction in SGK3 activity (SGK3; 0.1 μM VPS34-IN1, 1 h, U2OS): ~ 40%
- reduction in SGK3 activity (SGK3; 1 μM VPS34-IN1, 1 h, U2OS): ~ 60%
- time to 50% reduction of SGK3 activity (SGK3; 1 μM VPS34-IN1, time course): ≤ 15 s
- time to maximal suppression of SGK3 activity (SGK3; 1 μM VPS34-IN1, time course): ≤ 1 min
- decrease in SGK3 activity on VPS34-IN1 treatment (SGK3; U2OS, concentration not given): 50–60%
- time to nearly maximal reduction in SGK3 activity and phosphorylation (SGK3; VPS34-IN1, as stated in Discussion): ≤ 30 s
- inhibition of protein kinases, ProQinase panel [4]: did not significantly inhibit
- effect on GFP–2×FYVEHrs localization ([5]; 0.01 μM): weak effect
- loss of endosomal localization of GFP–2×FYVEHrs ([5]; 0.1 μM): ~ 50%
- loss of endosomal localization of GFP–2×FYVEHrs ([5]; 1.0 μM): ~ 80%
- effect on IGF1-induced plasma membrane recruitment of GFP–PHAkt1 [6]: had no impact
- inhibition of SGK2 activity (SGK2): did not inhibit
- time to dispersal of SGK3 from the endosomes ([7]; 1 μM, time-lapse, U2OS): ≤ 1 min
- time until dispersal of endosome-localized GFP–SGK3 is essentially complete ([7]; live cell imaging, U2OS): 60 to 120 s
- NDRG1 phosphorylation at Thr346 [8]: only affected moderately
- inhibition of lipid kinases, Dundee panel [9]: did not significantly inhibit
- inhibition of protein kinases, Dundee panel [10]: did not significantly inhibit
- time to near maximal dispersal of endosomal GFP–2×FYVEHrs ([11]; 1 μM, live imaging, U2OS): ≤ 2 min
- time to significant dispersal of endosomal GFP–2×FYVEHrs ([11]; 1 μM, live imaging, U2OS): ≤ 1 min
- time until dispersal of endosome-localized GFP–2×FYVEHrs is essentially complete ([11]; live cell imaging, U2OS): 60 to 120 s
- Akt phosphorylation at Ser473 and Thr308 [3]: had no effect
- phosphorylation of Akt substrate PRAS40 (Thr246) [3]: had no effect
- SGK3 T-loop and hydrophobic motif phosphorylation [1]: commensurate decrease
- loss of SGK3 phosphorylation ([1]; within 1 min): 50–60%

Compound: CS(=O)(=O)N1CCN(Cc2cc3nc(-c4cccc5[nH]ncc45)nc(N4CCOCC4)c3s2)CC1 [GDC-0941, 2-(1H-indazol-4-yl)-6-(4-methanesulfonyl-piperazin-1-ylmethyl)-4-morpholin-4-yl-t hieno[3,2-d]pyrimidine, reference compound]
- effect on SGK3 activity and phosphorylation at 1 min (SGK3; 0.5 μM GDC-0941, 1 min time point): little effect
- time to near maximal inhibition of SGK3 activity (SGK3; 0.5 μM GDC-0941, time course): 2 min
- effect on IGF1-induced plasma membrane recruitment of GFP–PHAkt1 [6]: blocked
- effect on SGK3 localization on endosomes ([7]; 0.5 μM GDC-0941 alone or with 1 μM VPS34-IN1, time-lapse): did not change significantly
- phosphorylation of 4EBP1 at sites phosphorylated by mTORC1 [2]: lack of effect
- NDRG1 phosphorylation at Thr346 [8]: significantly suppressed
- effect on endosomal localization of GFP–2×FYVEHrs ([11]; 0.5 μM GDC-0941 alone or with 1 μM VPS34-IN1, up to 60 min, live imaging): had no effect
- inhibition of Vps34 (Vps34): do not inhibit
- Akt phosphorylation at Ser473 and Thr308 [3]: near basal levels
- phosphorylation of Akt substrate PRAS40 (Thr246) [3]: near basal levels
